DBAASP
Values after ≈ are worked out from the molar mass of the structure shown. One block for each compound: values may come before it.

Key:
Experiment in all cases: ≥ marks a high value that may be exact or a test limit, other limits are often not marked, values filed in µg/mL are converted to µM
[1] = tested on: Candida albicans ATCC 90028
Candida tropicalis = tested on: Candida tropicalis
Candida parapsilosis = tested on: Candida parapsilosis
Candida krusei ATCC 6258 = tested on: Candida krusei ATCC 6258
[2] = tested on: Proteus mirabilis ATCC 25933
[3] = tested on: Staphylococcus aureus NCTC 8325
[4] = tested on: Candida parapsilosis ATCC 22019
[5] = tested on: Enterococcus faecalis ATCC 29212
[6] = tested on: Klebsiella pneumoniae KK3 9904
[7] = tested on: Staphylococcus epidermidis RP62A
Candida krusei = tested on: Candida krusei
[8] = tested on: Pseudomonas aeruginosa ATCC 27853
[9] = tested on: Batrachochytrium dendrobatidis JEL-197
[10] = tested on: Enterobacter cloacae HNTCC 53001
[11] = tested on: Escherichia coli ATCC 25922
Candida albicans = tested on: Candida albicans
[12] = tested on: Pseudomonas aeruginosa 5106
[13] = tested on: Staphylococcus aureus 01-001
[14] = tested on: Staphylococcus aureus ATCC 29213
Escherichia coli 5509 = tested on: Escherichia coli 5509
Escherichia coli 09-240 = tested on: Escherichia coli 09-240
[15] = tested on: Acinetobacter baumannii 5821
[16] = tested on: Pseudomonas aeruginosa 3599
[17] = tested on: Staphylococcus aureus ATCC 25923
[18] = tested on: Enterobacter cloacae 14-262
[19] = tested on: Klebsiella pneumoniae 01-252
[20] = tested on: Enterobacter cloacae 06-267
Escherichia coli 09-280 = tested on: Escherichia coli 09-280
[21] = tested on: Staphylococcus aureus 06-051
[22] = tested on: Klebsiella pneumoniae 01-239
Escherichia coli 170 = tested on: Escherichia coli 170
[23] = tested on: Pseudomonas aeruginosa ATCC 9027
[24] = tested on: Staphylococcus aureus ATCC 43300
[25] = tested on: Acinetobacter baumannii ATCC 19606
[26] = tested on: Pseudomonas aeruginosa CUN 4158-02
[27] = tested on: Staphylococcus aureus CUN 3792-99
[28] = tested on: Bordetella bronchiseptica CUN 11844-99
[29] = tested on: Stenotrophomonas maltophilia CUN 3998-00
[30] = tested on: Escherichia coli ATCC 43827
[31] = tested on: Staphylococcus epidermidis ATCC 12228
[32] = tested on: Candida glabrata ATCC 2001
[33] = tested on: Bacillus cereus ATCC 11778
[34] = tested on: Candida tropicalis ATCC 750
[35] = tested on: Klebsiella pneumoniae ATCC 700603
[36] = tested on: Pseudomonas aeruginosa ATCC 15442
[37] = tested on: Staphylococcus aureus CCT 2580
[38] = tested on: Cronobacter sakazakii ATCC 29544
[39] = tested on: Escherichia coli CCT 1457
[40] = tested on: Candida albicans ATCC 14053

MIC [1]: 3 µM (≈ 7.82 µg/mL) | MIC (Candida tropicalis): 5 µM (≈ 13 µg/mL) | MIC (Candida parapsilosis): 10 µM (≈ 26.1 µg/mL) | MIC (Candida krusei ATCC 6258): 5 µM (≈ 13 µg/mL) | MIC [2]: ≥ 40 µM | MIC [3]: 2 µM (≈ 5.21 µg/mL) | MIC [4]: 5 µM (≈ 13 µg/mL) | MIC [5]: 5 µM (≈ 13 µg/mL) | MIC [6]: ≥ 40 µM | MIC [7]: 5 µM (≈ 13 µg/mL) | MIC (Candida krusei): 10 µM (≈ 26.1 µg/mL) | MIC [8]: 10 µM (≈ 26.1 µg/mL) | MIC [9]: 12.5 µM (≈ 32.6 µg/mL) | MIC [10]: 10 µM (≈ 26.1 µg/mL) | MIC [11]: 17 µM (≈ 44.3 µg/mL) | MIC (Candida albicans): 5 µM (≈ 13 µg/mL)
Structure (SMILES): CC[C@H](C)[C@H](NC(=O)[C@@H]1CCCN1C(=O)[C@H](CC(C)C)NC(=O)[C@@H](N)Cc1ccccc1)C(=O)N[C@@H](CC(C)C)C(=O)N[C@@H](C)C(=O)N[C@@H](CO)C(=O)N[C@@H](CC(C)C)C(=O)N[C@@H](C)C(=O)N[C@@H](C)C(=O)N[C@@H](CCCCN)C(=O)N[C@@H](Cc1ccccc1)C(=O)NCC(=O)N1CCC[C@H]1C(=O)N[C@@H](CCCCN)C(=O)N[C@@H](CC(C)C)C(=O)N[C@@H](Cc1ccccc1)C(=O)N[C@H]1CSSC[C@@H](C(=O)O)NC(=O)[C@H](CCCCN)NC(=O)[C@H](CCCCN)NC(=O)[C@H]([C@@H](C)O)NC(=O)[C@H](C(C)C)NC(=O)[C@H](CC(C)C)NC1=O [FLPILASLAAKFGPKLFCLVTKKC]

MIC [12]: ≥ 32 µM | MIC [13]: 4 µM (≈ 6.42 µg/mL) | MIC [14]: 4 µM (≈ 6.42 µg/mL) | MIC (Escherichia coli 5509): ≥ 32 µM | MIC (Escherichia coli 09-240): 14 µM (≈ 22.5 µg/mL) | MIC [15]: 7 µM (≈ 11.2 µg/mL) | MIC [16]: ≥ 32 µM | MIC [17]: 15 µM (≈ 24.1 µg/mL) | MIC [18]: 14 µM (≈ 22.5 µg/mL) | MIC [19]: ≥ 32 µM | MIC [20]: ≥ 32 µM | MIC (Escherichia coli 09-280): ≥ 32 µM | MIC [21]: 4 µM (≈ 6.42 µg/mL) | MIC [22]: 12 µM (≈ 19.2 µg/mL) | MIC [8]: > 32 µM | MIC (Escherichia coli 170): ≥ 32 µM | MIC [23]: 10 µM (≈ 16 µg/mL) | MIC [11]: 10 µM (≈ 16 µg/mL)
Structure (SMILES): CC[C@H](C)[C@H](NC(=O)[C@H](C)NC(=O)[C@H](CC(N)=O)NC(=O)[C@H](CCCCN)NC(=O)[C@@H](NC(=O)CNC(=O)[C@H](CCC(=O)O)NC(=O)[C@H](Cc1c[nH]c2ccccc12)NC(=O)[C@H](CC(C)C)NC(=O)[C@H](CCCCN)NC(=O)CNC(=O)[C@H](Cc1c[nH]c2ccccc12)NC(=O)[C@H](Cc1ccccc1)NC(=O)CN)C(C)C)C(N)=O [GFWGKLWEGVKNAI]

MIC [24]: 10.2 µM (≈ 32 µg/mL) | MIC [17]: 20.3 µM (≈ 64 µg/mL) | MIC [25]: 20.3 µM (≈ 64 µg/mL) | MIC [26]: ≥ 40.7 µM | MIC [27]: 20.3 µM (≈ 64 µg/mL) | MIC [28]: 10.2 µM (≈ 32 µg/mL) | MIC [8]: 40.7 µM (≈ 128 µg/mL) | MIC [29]: 20.3 µM (≈ 64 µg/mL) | MIC [11]: 20.3 µM (≈ 64 µg/mL)
Structure (SMILES): NCCCC[C@H](NC(=O)[C@H](Cc1ccccc1)NC(=O)[C@H](CCCN=C(N)N)NC(=O)[C@H](CCCN=C(N)N)NC(=O)[C@H](CS)NC(=O)CN)C(=O)N[C@@H](CCCCN)C(=O)N[C@@H](Cc1ccccc1)C(=O)N[C@@H](CCCCN)C(=O)N[C@@H](CCCCN)C(=O)N[C@@H](Cc1c[nH]c2ccccc12)C(=O)N[C@@H](CCCN=C(N)N)C(=O)N[C@@H](Cc1ccc(O)cc1)C(=O)N[C@@H](CCCN=C(N)N)C(=O)NCC(=O)N[C@@H](CCCN=C(N)N)C(=O)N[C@@H](Cc1ccccc1)C(=O)N[C@@H](Cc1c[nH]c2ccccc12)C(=O)N[C@@H](Cc1ccccc1)C(=O)N[C@@H](Cc1c[nH]c2ccccc12)C(=O)N[C@@H](CS)C(=O)N[C@@H](Cc1ccccc1)C(=O)NCC(N)=O [GCRRFKKFKKWRYRGRFWFWCFG]

MIC [30]: 8 µM (≈ 12.9 µg/mL) | MIC [31]: 4 µM (≈ 6.45 µg/mL) | MIC [14]: 4 µM (≈ 6.45 µg/mL) | MIC [32]: 8 µM (≈ 12.9 µg/mL) | MIC [33]: 4.96 µM (≈ 8 µg/mL) | MIC (Candida krusei ATCC 6258): 8 µM (≈ 12.9 µg/mL) | MIC [34]: 2 µM (≈ 3.23 µg/mL) | MIC [35]: 4 µM (≈ 6.45 µg/mL) | MIC [4]: 16 µM (≈ 25.8 µg/mL) | MIC [36]: ≥ 38.4 µM | MIC [37]: 2.48 µM (≈ 4 µg/mL) | MIC [8]: 8 µM (≈ 12.9 µg/mL) | MIC [38]: 16 µM (≈ 25.8 µg/mL) | MIC [39]: 4.96 µM (≈ 8 µg/mL) | MIC [11]: 8 µM (≈ 12.9 µg/mL) | MIC [40]: 16 µM (≈ 25.8 µg/mL)
Structure (SMILES): CC[C@H](C)[C@H](N)C(=O)N[C@@H](CC(N)=O)C(=O)N[C@@H](Cc1c[nH]c2ccccc12)C(=O)N[C@@H](CC(C)C)C(=O)N[C@@H](CCCCN)C(=O)N[C@@H](CC(C)C)C(=O)NCC(=O)N[C@@H](CCCCN)C(=O)N[C@@H](CCSC)C(=O)N[C@H](C(=O)N[C@H](C(=O)N[C@@H](CC(=O)O)C(=O)N[C@@H](C)C(=O)N[C@@H](CC(C)C)C(N)=O)[C@@H](C)CC)C(C)C [INWLKLGKMVIDAL]
